Entries after “also recorded” stand apart in the source; their conditions may differ.
Legend:
Assay type in all cases: in vivo, zebrafish (Danio rerio)
ryr1b mutants = test: Kaplan-Meier survival of ryr1b mutants; conditions: 10 μg/mL from 1 to 50 dpf
Procedure: Kaplan-Meier survival curves of ryr1b mutants treated with either DMSO or NIF (10 μg/mL) from 1 to 50 dpf. Mutants were sorted from unaffected controls at 5 dpf using a touch-evoked escape behavior assay. Untreated fish all died by 35 days of life. Median survival of DMSO-versus NIF-treated mutants was 15.0 and 13.0 days, respectively.
In addition to their muscular defects, ryr1b mutants die prematurely^30. To examine whether long-term treatment with NIF positively impacts the life span of ryr1b mutants, affected larvae (selected at 5 dpf by touch-evoked escape behavior assay) were treated with compound from 1 to 50 dpf.

phosphorylated Stat3 = test: Western blot of phosphorylated Stat3 at 5 dpf; conditions: 10 μg/mL, normalized to β-Actin
Procedure: In two independent experiments, two pools of 20 larvae from heterozygous ryr1b matings were treated with DMSO or with one of three different concentrations of NIF (1.0-100.0 μg/mL) at 1 dpf and evaluated in terms of touch-evoked escape behaviors at 5 dpf (n=40). Following phenotypic scoring, all living embryos were genotyped using three-primer genomic PCR. Swimming scores for larvae genotype-confirmed as ryr1b homozygous mutants are shown as a percentage of the total number of living larvae in each dose category: 1=poor swimming; 2 or 3=moderate or wild-type swimming. NIF improved mobility of ryr1b mutants at a dose of 10 μg/mL. […] Phospho-Stat3 band intensities were normalized to β-Actin control bands and quantified in Image J (NIH).
Western blotting was performed on groups of 50-100 wild-type or mutant zebrafish larvae at 5 dpf. […] Phospho-Stat3 band intensities were normalized to control bands and quantified in Image J (NIH).
To determine whether zebrafish stat3 is differentially expressed in the wild-type and Ryr1-deficient background, quantitative real-time RT-PCR was performed using fluorescently tagged Taqman probes.

[1] = test system: ryr1b homozygous mutant zebrafish; test: Secondary screen of individual chemicals in ryr1b zebrafish (vitality: survival and touch-evoked escape behavior); parameters: key: vitality score, theoretical range 0–60; DMSO controls expected ~50; conditions: 2.0 μg/mL from 1 dpf, scored at 5 dpf; average of two replicates of 20 larvae from heterozygous ryr1b matings; score=(#Dead*0)+(#ryr1b*1)+(#Moderate*2)+(#Wild-type*3), max 60, expected 50 in DMSO controls
Procedure: Each scored compound represents an average of two replicates, consisting of 20 larvae from heterozygous ryr1b matings (n=40). Larvae obtained from wild-type AB matings served as positive controls. […] Significance was determined by pairwise comparisons between control and experimental pools using a Student's t-test. Vitality score=(#Dead*0)+(#ryr1b*1)+(#Moderate*2)+(#Wild-type*3). Standard deviations shown for positive and negative controls were calculated based on results from 5 and 21 independent experiments, respectively.
Primary screen. For the primary screen, twenty embryos (1 dpf) resulting from a mating of heterozygous ryr1b zebrafish were manually sorted into 48-well plates containing 250 μL embryo 1×E3 medium (5.0 mM NaCl, 0.17 mM KCl, 0.33 mM CaCl2*2H2O, 0.33 mM MgSO4*7H2O) and four pooled chemicals from the Prestwick2 chemical library. Each chemical pool was assayed in duplicate using embryos from two independent clutches, for a total of 24 distinct pools tested per plate (FIG. 1). The chemicals were dissolved to a final concentration of 2.0 μg/mL and 0.4% DMSO, which is similar to concentrations other groups have used in zebrafish studies^37,38. As a negative control, twenty embryos from each clutch were cultured without chemicals in vehicle only (0.4% DMSO) (FIG. 1). Larvae obtained from wild-type (Oregon AB) matings served as positive controls in separate plates. All plates containing embryos were incubated at 28.5° C. and maintained as initially treated for 5 days. Dead embryos were removed from wells when observed during the first 4 days of the study. On day 5, dead or “motion-dead” larvae were scored alongside living larvae.
At 5 dpf, pools were scored for their ability to improve the survival and touch-evoked escape behaviors of ryr1b homozygous mutants using the following numeric scoring system: 3=4-6 cm, fast (wild-type); 2=2-4 cm (moderate); 1=<2 cm, slow (ryr1b); 0=no movement (dead) (FIG. 2A). Survival, swimming, and combined endpoints of the primary screen were then examined for their ability to distinguish positive from negative controls. […] Taking into account both experimental replicates (n=40), hit pools contained at least 37 alive larvae on day 5 (i.e., 70-100% of the larvae assumed to be ryr1b mutants survived the duration of the study), and were selected for analysis in a secondary screen.
In the secondary screen, hit pools were separated and tested as 68 individual chemicals. Screening was performed precisely as described for the primary screen with few modifications. Embryos were raised in wells containing 750 μL 1×E3 medium, as opposed to 250 μL, although the final concentration of each compound was maintained at 2.0 μg/mL. […] Vitality scores, weighting survival and swimming ratios appropriately, were calculated as (#Dead*0)+(#ryr1b*1)+(#Moderate*2)+(#Wild-type*3). Theoretical maximum and minimum scores were 60 and 0, respectively, with an expected score of 50 in DMSO-treated controls. Secondary screen hits (P<0.05), considered “candidate” compounds, are currently being examined in dose-response and long-term studies.
The second tier of the chemical screen was performed two years following the primary screen, with a fully established ryr1b^+/− line. Healthier clutches tended to result in better survival of homozygous ryr1b mutants. Median mutant life spans more accurately adhered to the 7-15 day estimate previously published^30. Therefore, in the secondary screen, hit chemical pools were separated into individual compounds and each of 68 total compounds was examined for its ability to positively influence both ryr1b survival and motor function (referred to in combination as “vitality”). […] These included two anti-inflammatory agents (sulfasalazine and ketoprofen), two monoamine oxidase inhibitors (pargyline hydrochloride and tranylcypromine hydrochloride), and two ion channel modulators (metolazone and nimodipine).

O=C(N/N=C/c1ccc([N+](=O)[O-])o1)c1ccc(O)cc1 [Nifuroxazide]
survival of ryr1b mutants (ryr1b mutants; listed as NIF): did not significantly differ; also recorded: two affected fish treated with NIF survived until termination of the study
median survival (ryr1b mutants; ryr1b mutants, DMSO 15.0 days, log-rank P=0.5): 13.0 days
levels of phosphorylated Stat3 protein (phosphorylated Stat3): larger decrease in ryr1b mutants than in unaffected controls
Vitality Score [1]: 52.0
